Laboratory results taken from patent US20230348447A1, “OXAZOLIDINONE COMPOUNDS, LIPOSOME COMPOSITIONS COMPRISING OXAZOLIDINONE COMPOUNDS AND METHOD OF USE THEREOF” (priority 2020, published 2023).
≈ marks a conversion by molar mass, not a printed value. Like-named read-outs stand apart in the source and are kept apart here.

What was measured:
M.tb H37Rv = experiment: Broth microdilution MIC with Alamar blue endpoint (MABA) / OD600; format: cell-based, Mycobacterium tuberculosis; settings: Mycobacterium tuberculosis, H37RV
MRSA ATCC 43300 = experiment: MIC against methicillin resistant Staphylococcus aureus (MRSA); settings: read-out: MRSA MIC, ATCC 43300
M. abscessus = experiment: MIC in nontuberculosis mycobacteria (microbroth dilution, resazurin); format: cell-based, Mycobacterium abscessus; settings: Mycobacteroides abscessus, read-out: MIC
M.avium = experiment: as above; format: cell-based, Mycobacterium avium; settings: Mycobacterium avium, read-out: MIC
MRSA ATCC BAA-1556 [1] = experiment: MIC against methicillin resistant Staphylococcus aureus (MRSA)
MRSA 880 NR-49120 = experiment: as above; settings: read-out: MRSA MIC, 880 NR-49120
MRSA ATCC BAA-1556 [2] = settings: cited from earlier work
[3] = Aqueous solubility (visually clear solutions); format: physicochemical
Description: Working stocks of the compounds were prepared as follows: to an aliquot of a compound (free base) in a powder form 1-1.5 equivalents of HCl in the form of 1 N aqueous solution was added, and the mixture was vortexed until homogeneity. To the resulting cake or syrup, water was added typically to the final 10 mg/ml, and complete dissolution was observed. In some instances, 0.95 equivalents of HCl were added to the free base form of the drug, and 20 mg/ml stock solution was prepared.
Aqueous solubility of the compounds of the present disclosure is illustrated by the following observations of obtaining visually clear solutions: […]

M. kansasii = experiment: MIC in nontuberculosis mycobacteria (microbroth dilution, resazurin); format: cell-based; settings: Mycobacterium kansasii
M. massiliense = experiment: as above; format: cell-based, Mycobacterium massiliense
[4] = test system: mitochondrial protein synthesis (COX-1/SDH-A ratio) in H9C2 rat heart myoblast cells; experiment: Mitochondrial protein synthesis inhibition (MitoBiogenesis in-cell ELISA, COX-1/SDH-A); format: cell-based; settings: 120 h, five days, read-out: MPS IC50
M. chelonae = experiment: MIC in nontuberculosis mycobacteria (microbroth dilution, resazurin); format: cell-based, Mycobacterium chelonae; settings: Mycobacteroides chelonae
M.tb Erdman = experiment: Broth microdilution MIC with Alamar blue endpoint (MABA) / OD600; format: cell-based, Mycobacterium tuberculosis; settings: Mycobacterium tuberculosis
[5] = Liposome loading / encapsulation efficiency (General protocol); settings: HSPC, 5 mol% PEG-lipid, 40-65 mol% Chol; DL0 250 (AKG-28) or 500 (AKG-38)
M. Tuberculosis Erdman [6] = experiment: Efficacy of monotherapy in chronic Balb/c model of tuberculosis (lung and spleen CFU); format: in vivo, Mycobacterium tuberculosis (in Balb/c mice)
M. Tuberculosis Erdman [7] = settings: eight weeks, Balb/c and C3HeB/FeJ mice; cited from earlier work
[8] = male, Sprague-Dawley, rat, in vivo, po, 50 mg/kg
in vivo = settings: male, Sprague-Dawley, rat
[9] = male, Sprague-Dawley, rat, in vivo, 50 mg/kg, 8 weeks
Description: The control group was injected once weekly for 8 weeks with an equal volume of HEPES buffered saline (HBS, pH 7). Before the endpoint of the study animals were humanely euthanized by exsanguination from the abdominal aorta following isoflurane anesthesia. Blood and tissue samples were collected for evaluation of clinical pathology parameters. Representative samples of tissues were collected and preserved in 10% neutral buffered, embedded in paraffin, sectioned, mounted on glass slides, stained with hematoxylin and eosin, and evaluated for histopathology by a board-certified veterinary pathologist.
The following parameters and end points were also evaluated: mortality and moribundity check, clinical observations, body weights, food consumption, nerve conduction velocity (NCV) and muscle action potential (MAP), functional observation battery (FOB).

[10] = as determined in Example 2, read-out: MIC (H37Rv)
[11] = read-out: Mycobacterium tuberculosis MIC, H37Rv
[12] = ERDMAN, read-out: Mycobacterium tuberculosis MIC, Erdman
[13] = M. tuberculosis Erdman / H37Rv, strains not separated, read-out: MIC
[14] = Balb/c mice, 50 mg/kg, q1x5, oral gavage
[15] = Balb/c mice, 100 mg/kg, q1x5, oral gavage

## Cn1nnc(-c2ccc(-c3ccc(N4C[C@H](CO)OC4=O)cc3F)cn2)n1 [Tedizolid, reference compound]
M.tb H37Rv; [10]
  MIC: 0.25 µg/mL (≈ 0.675 µM)
M.tb H37Rv; [11]
  MIC: 0.25 µg/mL (≈ 0.675 µM)
MRSA ATCC 43300
  MIC: 0.617 µg/mL (≈ 1.67 µM)
M. abscessus; M. abscessus sbsp. abscessus strain 21
  MIC: 0.5 µg/mL (≈ 1.35 µM)
M. abscessus; M. abscessus sbsp. abscessus strain 1513
  MIC: 4 µg/mL (≈ 10.8 µM)
M. abscessus; M. abscessus sbsp. abscessus strain 1948
  MIC: 0.5 µg/mL (≈ 1.35 µM)
M.avium; M. avium sbsp. avium strain 2285 R
  MIC: 0.25 µg/mL (≈ 0.675 µM)
M.avium; M. avium sbsp. avium strain 2285 S
  MIC: 0.25 µg/mL (≈ 0.675 µM)
M.avium; M. avium sbsp. avium strain 3993
  MIC: 0.25 µg/mL (≈ 0.675 µM)
MRSA ATCC BAA-1556 [1]; read-out: MRSA MIC
  MIC: 0.206 to 0.617 µg/mL (≈ 0.556 to 1.67 µM)
MRSA ATCC BAA-1556 [1]; read-out: MRSA MIC, ATCC BAA-1556
  MIC: 0.617 µg/mL (≈ 1.67 µM)
MRSA 880 NR-49120
  MIC: 0.206 µg/mL (≈ 0.556 µM)
MRSA ATCC BAA-1556 [2]
  MRSA MIC described in U.S. Pat. No. 7,816,379: 0.5 µg/mL
[3]
  solubility in water for gradient-assisted liposome loading: not soluble enough in water
M. kansasii
  MIC: 0.125 µg/mL (≈ 0.338 µM)
M. kansasii; M. kansasii strain 662, read-out: MIC
  MIC: > 32 µg/mL
M. kansasii; M. kansasii strain 732, read-out: MIC
  MIC: 0.25 µg/mL (≈ 0.675 µM)
M. kansasii; M. kansasii strain 824, read-out: MIC
  MIC: 0.25 µg/mL (≈ 0.675 µM)
M. kansasii; M. kansasii strain MK13D6, read-out: MIC
  MIC: 0.25 µg/mL (≈ 0.675 µM)
M. massiliense; M. massiliense strain M154
  MIC: 0.06 µg/mL (≈ 0.162 µM)
M. massiliense; M. massiliense, three strains
  activity relative to AKG-28 and AKG-38: more active in all three strains evaluated
M. massiliense; Mycobacteroides abscessus, CIP108297, M. massiliense strain CIP 108297, read-out: MIC
  MIC: 0.25 µg/mL (≈ 0.675 µM)
M. massiliense; Mycobacteroides abscessus, M. massiliense strain CRM0019, read-out: MIC
  MIC: 0.06 µg/mL (≈ 0.162 µM)
[4]
  IC50: 0.143 µg/mL (≈ 0.386 µM)
M. chelonae; M. chelonae strain 49, read-out: MIC
  MIC: 0.25 µg/mL (≈ 0.675 µM)
M. chelonae; M. chelonae strain 69, read-out: MIC
  MIC: 2 µg/mL (≈ 5.4 µM)
M. chelonae; M. chelonae strain 35752
  MIC: 0.125 µg/mL (≈ 0.338 µM)
M.tb Erdman; [12]
  MIC: 0.25 µg/mL (≈ 0.675 µM)
M.tb Erdman; [13]
  MIC: 0.25 µg/mL (≈ 0.675 µM)

## CC(=O)NC[C@H]1CN(c2ccc(N3CCOCC3)c(F)c2)C(=O)O1 [Linezolid]
M.tb H37Rv; [10]
  MIC: 1 µg/mL (≈ 2.96 µM)
M.tb H37Rv; [11]
  MIC: 1 µg/mL (≈ 2.96 µM)
[5]
  EE: less than 5%
M. Tuberculosis Erdman [6]; [14]
  Lung Log CFU, 4 week: 4.61 ± 0.31 Log CFU
  Spleen Log CFU, 4 week: 4.32 ± 0.28 Log CFU
M. Tuberculosis Erdman [6]; [15]
  Lung Log CFU, 2 week: 5.58 ± 0.10 Log CFU
  Lung Log CFU, 4 week: 4.17 ± 0.21 Log CFU
  Lung Log CFU, 8 week: 2.45 ± 0.37 Log CFU
  Spleen Log CFU, 2 week: 4.53 ± 0.25 Log CFU
  Spleen Log CFU, 4 week: 3.90 ± 0.28 Log CFU
M. Tuberculosis Erdman [6]; eight weeks, linezolid 100 mg/kg, detection limit 1.13
  log10 CFU in lungs: 2.45 log10 CFU
M. Tuberculosis Erdman [6]; two weeks, Ls-AKG28 50 mg/kg twice weekly or 100 mg/kg once weekly, linezolid 100 mg/kg (q1x5)
  Log10 CFU reduction, lungs: less than 0.15 Log10 CFU
M. Tuberculosis Erdman [7]
  log10 CFU counts, monotherapy (Lanoix et al. 2015): 4-6 log10 CFU
[8]
  AUC0-inf: 373.53 µg·h/mL
  Clearance: 2.231 mL/min/kg
  T ½: 11.86 h
  Vd: 2,291.26 mL/kg
In vivo
  Vd: 2.29 L/kg
In vivo; po, 50 mg/kg
  AUC: 282 µg·h/mL
  AUC0-inf: 374 µg·h/mL
  AUC(0-t): 282 µg·h/mL
  Cmax: 26700 ng/mL
  Tmax: 1 h
  half-life: 11.9 h
[9]
  Kidney: Vacuolation, mesangial cell, glomerular, Minimal (animals): 0
  Kidney: Vacuolation, mesangial cell, glomerular, number of animals with the finding: (0)
  Liver: Degeneration, hepatocellular, centrilobular, Mild (animals): 0
  Liver: Degeneration, hepatocellular, centrilobular, Minimal (animals): 0
  Liver: Degeneration, hepatocellular, centrilobular, number of animals with the finding: (0)
  Liver: Single cell necrosis, centrilobular, Minimal (animals): 2
  Liver: Single cell necrosis, centrilobular, number of animals with the finding: (2)
  Spleen: Accumulation, basophilic material, Mild (animals): 0
  Spleen: Accumulation, basophilic material, Minimal (animals): 0
  Spleen: Accumulation, basophilic material, number of animals with the finding: (0)
  Spleen: Vacuolation, macrophages, Mild (animals): 0
  Spleen: Vacuolation, macrophages, Minimal (animals): 0
  Spleen: Vacuolation, macrophages, Moderate (animals): 0
  Spleen: Vacuolation, macrophages, number of animals with the finding: (0)
M.tb Erdman; [12]
  MIC: 1 µg/mL (≈ 2.96 µM)
M.tb Erdman; [13]
  MIC: 2 µg/mL (≈ 5.93 µM)
